Measured values: publication PMC11311990, “Identification of Ribonuclease Inhibitors for the Control of Pathogenic Bacteria” (International Journal of Molecular Sciences, 2024)

Assays:
RNase R = target: T1, RNase R (Escherichia coli, UniProt P21499); type: biochemical; settings: 10 mM compound, 10 nM enzyme, 10 nM poly(A), 1 mM MgCl2, 100 mM KCl, pH 8, 37 °C, DMSO
T1 construct: gene rnr; full-length recombinant, N-terminal His tag (pET15b derivative), expressed in E. coli BL21(DE3), IMAC purified
T1 sequence (P21499 2-813): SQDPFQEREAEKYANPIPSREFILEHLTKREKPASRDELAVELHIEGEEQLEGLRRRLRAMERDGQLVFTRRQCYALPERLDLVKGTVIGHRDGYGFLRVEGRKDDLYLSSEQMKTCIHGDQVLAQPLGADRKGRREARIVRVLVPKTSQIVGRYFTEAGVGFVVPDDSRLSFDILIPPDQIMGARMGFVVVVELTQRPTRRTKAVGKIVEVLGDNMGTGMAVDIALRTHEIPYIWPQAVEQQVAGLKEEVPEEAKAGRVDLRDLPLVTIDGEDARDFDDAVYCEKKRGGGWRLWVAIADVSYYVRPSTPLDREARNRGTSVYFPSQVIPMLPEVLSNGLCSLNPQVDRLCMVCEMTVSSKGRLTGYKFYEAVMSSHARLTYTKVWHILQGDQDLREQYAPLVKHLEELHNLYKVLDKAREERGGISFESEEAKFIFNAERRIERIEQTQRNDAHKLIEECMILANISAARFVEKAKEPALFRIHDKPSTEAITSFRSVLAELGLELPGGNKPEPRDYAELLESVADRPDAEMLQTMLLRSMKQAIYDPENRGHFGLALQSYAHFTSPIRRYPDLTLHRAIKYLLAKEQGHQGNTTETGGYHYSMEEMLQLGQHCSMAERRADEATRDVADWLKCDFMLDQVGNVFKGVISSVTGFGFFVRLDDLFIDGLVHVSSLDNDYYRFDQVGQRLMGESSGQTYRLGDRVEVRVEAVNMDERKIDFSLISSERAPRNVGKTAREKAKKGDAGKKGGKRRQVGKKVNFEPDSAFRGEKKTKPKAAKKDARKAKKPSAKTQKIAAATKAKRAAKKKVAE

RNase II = target: T2, RNase II (Escherichia coli, UniProt P30850); type: biochemical; settings: 10 mM compound, 10 nM enzyme, 10 nM poly(A), 1 mM MgCl2, 100 mM KCl, pH 8, 37 °C, DMSO
T2 construct: gene rnb; full-length recombinant, N-terminal His tag (pET15b derivative), expressed in E. coli BL21(DE3), IMAC purified
T2 sequence (P30850 whole entry): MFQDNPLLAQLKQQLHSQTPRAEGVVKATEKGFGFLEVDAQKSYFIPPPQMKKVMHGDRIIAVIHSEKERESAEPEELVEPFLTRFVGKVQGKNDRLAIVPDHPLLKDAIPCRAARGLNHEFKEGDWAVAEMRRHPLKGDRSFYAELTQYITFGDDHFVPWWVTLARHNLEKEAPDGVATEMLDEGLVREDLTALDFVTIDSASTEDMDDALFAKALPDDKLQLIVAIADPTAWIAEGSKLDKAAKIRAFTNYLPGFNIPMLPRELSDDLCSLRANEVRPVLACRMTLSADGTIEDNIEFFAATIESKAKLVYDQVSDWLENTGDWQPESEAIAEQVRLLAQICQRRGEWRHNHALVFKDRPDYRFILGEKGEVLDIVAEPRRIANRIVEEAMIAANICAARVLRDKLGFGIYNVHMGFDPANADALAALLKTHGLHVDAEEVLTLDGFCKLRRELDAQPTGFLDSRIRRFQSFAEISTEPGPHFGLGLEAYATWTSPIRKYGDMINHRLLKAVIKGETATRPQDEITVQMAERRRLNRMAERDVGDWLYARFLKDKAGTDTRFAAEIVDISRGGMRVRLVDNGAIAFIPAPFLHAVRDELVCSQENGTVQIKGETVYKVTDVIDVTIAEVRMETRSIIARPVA

Row | SMILES | gel exoribonuclease assay, 5'-32P 35-nt poly(A) (RNase R) | gel exoribonuclease assay, 5'-32P 35-nt poly(A) (RNase II)
1 | Cc1nc(S)nc(O)c1Oc1cccc(C(F)(F)F)c1 [SPB04215, 2-mercapto-6-methyl-5-[3-(trifluoromethyl)phenoxy]pyrimidin-4-ol] | SPB04215 and SPB04462 compounds were also effective in inhibiting RNase R activity | with RNase II being also affected, but to a lesser extent
2 | CC(=O)Nc1nc(C)c(Oc2cccc(C(F)(F)F)c2)c(O)n1 [SPB04462, N1-{4-hydroxy-6-methyl-5-[3-(trifluoromethyl)phenoxy]pyrimidin-2-yl}acetamide] | SPB04215 and SPB04462 compounds were also effective in inhibiting RNase R activity | with RNase II being also affected, but to a lesser extent
